Measured values from patent publication US11178873B2, “Cyclic N-carboxamide compounds useful as herbicides” (FMC CORPORATION, priority 2015, dated 2021).

Columns and labels:
Type in all cases: in vivo
Details in all cases: 1000 g ai/ha, 0 to 100 scale, 0 no effect, 100 complete control
[1] = system: ragweed (common ragweed, Ambrosia elatior); assay: Test A preemergence, ragweed
From the text: (§1) Seeds of plant species selected from barnyardgrass (Echinochloa crus-galli), crabgrass, large (large crabgrass, Digitaria sanguinalis), kochia (Kochia scoparia), ragweed (common ragweed, Ambrosia elatior), morningglory (Ipomoea spp.), velvetleaf (Abutilon theophrasti), ryegrass, Italian (Italian ryegrass, Lolium multiflorum), foxtail, giant (giant foxtail, Setaria faberii), wheat (Triticum aestivum), corn (Zea mays), and pigweed (Amaranthus retroflexus), were planted into a blend of loam soil and sand and treated preemergence with a directed soil spray using test chemicals formulated in a non-phytotoxic solvent mixture which included a surfactant. At the same time, plants selected from these crop and weed species and also blackgrass (Alopecurus myosuroides), and galium (catchweed bedstraw, Galium aparine), were planted in pots containing the same blend of loam soil and sand and treated with postemergence applications of test chemicals formulated in the same manner. Plants ranged in height from 2 to 10 cm and were in the one- to two-leaf stage for the postemergence treatment. Treated plants and untreated controls were maintained in a greenhouse for approximately 10 d, after which time all treated plants were compared to untreated controls and visually evaluated for injury. Plant response ratings, summarized in Table A, are based on a 0 to 100 scale where 0 is no effect and 100 is complete control. A dash (-) response means no test result.

[2] = system: ragweed (common ragweed, Ambrosia elatior); assay: Test A postemergence, ragweed
From the text: as §1

[3] = system: pigweed (Amaranthus retroflexus); assay: Test A preemergence, pigweed
From the text: as §1

[4] = system: corn (Zea mays); assay: Test A postemergence, corn
From the text: as §1

[5] = system: foxtail, giant (giant foxtail, Setaria faberii); assay: Test A postemergence, foxtail, giant
From the text: as §1

[6] = system: kochia (Kochia scoparia); assay: Test A postemergence, kochia
From the text: as §1

[7] = system: ryegrass, Italian (Italian ryegrass, Lolium multiflorum); assay: Test A preemergence, ryegrass, Italian
From the text: as §1

[8] = system: barnyardgrass (Echinochloa crus-galli); assay: Test A preemergence, barnyardgrass
From the text: as §1

[9] = system: galium (catchweed bedstraw, Galium aparine); assay: Test A postemergence, galium
From the text: as §1

[10] = system: blackgrass (Alopecurus myosuroides); assay: Test A postemergence, blackgrass
From the text: as §1

[11] = system: wheat (Triticum aestivum); assay: Test A postemergence, wheat
From the text: as §1

[12] = system: pigweed (Amaranthus retroflexus); assay: Test A postemergence, pigweed
From the text: as §1

[13] = system: barnyardgrass (Echinochloa crus-galli); assay: Test A postemergence, barnyardgrass
From the text: as §1

[14] = system: foxtail, giant (giant foxtail, Setaria faberii); assay: Test A preemergence, foxtail, giant
From the text: as §1

[15] = system: kochia (Kochia scoparia); assay: Test A preemergence, kochia
From the text: as §1

[16] = system: ryegrass, Italian (Italian ryegrass, Lolium multiflorum); assay: Test A postemergence, ryegrass, Italian
From the text: as §1

Structure (SMILES)	Plant response rating, Ragweed [1]	Plant response rating, Ragweed [2]	Plant response rating, Pigweed [3]	Plant response rating, Corn [4]	Plant response rating, Foxtail, Giant [5]	Plant response rating, Kochia [6]	Plant response rating, Ryegrass, Italian [7]	Plant response rating, Barnyardgrass [8]	Plant response rating, Galium [9]	Plant response rating, Blackgrass [10]	Plant response rating, Wheat [11]	Plant response rating, Pigweed [12]	Plant response rating, Barnyardgrass [13]	Plant response rating, Foxtail, Giant [14]	Plant response rating, Kochia [15]	Plant response rating, Ryegrass, Italian [16]
CN1CC(c2ccc(C(F)(F)F)cc2)N(C(=O)Nc2cccc(F)c2F)C1=O (stereo not shown) [Compound 14]	0	0	0	0	0	0	0	20	0	0	0	0	0	70	0	0
Cc1ccc(C2CCC(=O)N2C(=O)Nc2ccccc2F)cc1 (stereo not shown) [Compound 19]	0	0	70	0	0	0	0	40	0	0	0	0	0	40	20	0
Cc1ccc(C2CCC(=O)N2C(=O)Nc2ccccc2C(F)(F)F)cc1 (stereo not shown) [Compound 20]	0	0	0	0	0	0	0	0	0	0	0	0	0	20	0	0
Cc1ccc(C2CCC(=O)N2C(=O)Nc2ccc(F)c(F)c2F)cc1 (stereo not shown) [Compound 21]	0	0	0	0	0	0	0	20	0	0	0	0	0	70	0	0
